Experimental data as given in ChEMBL document CHEMBL3627713, “Triazole linked mono carbonyl curcumin-isatin bifunctional hybrids as novel anti tubulin agents: Design, synthesis, biological evaluation and molecular modeling studies” (Bioorg Med Chem, 2015).

Assays:
[1] = system: COLO 205; assay: Cytotoxicity against human COLO205 cells assessed as growth inhibition at 50 uM after 48 hrs by sulforhodamine B assay relative to control; format: functional; details: COLO 205, 48 h, read-out: GI
[2] = system: THP-1; assay: Cytotoxicity against human THP1 cells assessed as growth inhibition at 50 uM after 48 hrs by sulforhodamine B assay relative to control; format: functional; details: THP-1, 48 h, read-out: GI
[3] = system: PC-3; assay: Cytotoxicity against human PC3 cells assessed as growth inhibition after 48 hrs by sulforhodamine B assay; format: functional, cell-based; details: PC-3, 48 h
[4] = system: COLO 205; assay: Cytotoxicity against human COLO205 cells assessed as growth inhibition after 48 hrs by sulforhodamine B assay; format: functional, cell-based; details: COLO 205, 48 h
[5] = system: THP-1; assay: Cytotoxicity against human THP1 cells assessed as growth inhibition after 48 hrs by sulforhodamine B assay; format: functional, cell-based; details: THP-1, 48 h
[6] = system: HCT-116; assay: Cytotoxicity against human HCT116 cells assessed as growth inhibition at 50 uM after 48 hrs by sulforhodamine B assay relative to control; format: functional; details: HCT-116, 48 h, read-out: GI
[7] = system: HCT-116; assay: Cytotoxicity against human HCT116 cells assessed as growth inhibition after 48 hrs by sulforhodamine B assay; format: functional, cell-based; details: HCT-116, 48 h
[8] = system: CAKI-1; assay: Cytotoxicity against human Caki1 cells assessed as growth inhibition at 50 uM after 48 hrs by sulforhodamine B assay relative to control; format: functional; details: CAKI-1, 48 h, read-out: GI
[9] = system: PC-3; assay: Cytotoxicity against human PC3 cells assessed as growth inhibition at 50 uM after 48 hrs by sulforhodamine B assay relative to control; format: functional; details: PC-3, 48 h, read-out: GI
[10] = Cytotoxicity against human MIAPaCa2 cells assessed as growth inhibition at 50 uM after 48 hrs by sulforhodamine B assay relative to control; format: functional; details: MIA PaCa-2, 48 h, read-out: GI
[11] = system: HeLa; assay: Cytotoxicity against human HeLa cells assessed as growth inhibition at 50 uM after 48 hrs by sulforhodamine B assay relative to control; format: functional; details: read-out: GI
[12] = system: A549; assay: Cytotoxicity against human A549 cells assessed as growth inhibition at 50 uM after 48 hrs by sulforhodamine B assay relative to control; format: functional; details: A549, 48 h, read-out: GI

| Compound | inhibition of growth at 50 µM [1] [%] | inhibition of growth at 50 µM [2] [%] | IC50 [3] [µM] | IC50 [4] [µM] | IC50 [5] [µM] | inhibition of growth at 50 µM [6] [%] | IC50 [7] [µM] | inhibition of growth at 50 µM [8] [%] | inhibition of growth at 50 µM [9] [%] | inhibition of growth at 50 µM [10] [%] | inhibition of growth at 50 µM [11] [%] | inhibition of growth at 50 µM [12] [%] |
| --- | --- | --- | --- | --- | --- | --- | --- | --- | --- | --- | --- | --- |
| COc1cc(/C=C/C(=O)/C=C/c2cccs2)ccc1OCc1cn(CCN2C(=O)C(=O)c3ccccc32)nn1 | 66 | 71 | 8.51 | 7.72 | 6.83 | 76 | 5.09 | 10 | 63 |  |  |  |
| COc1cc(/C=C/C(=O)/C=C/c2cccs2)ccc1OCc1cn(CCN2C(=O)C(=O)c3cc(Cl)ccc32)nn1 | 35 | 38 |  |  |  | 44 |  |  | 37 |  |  |  |
| COc1cc(/C=C/C(=O)/C=C/c2cccc3ccccc23)ccc1OCc1cn(CCN2C(=O)C(=O)c3cc(Br)ccc32)nn1 | 40 | 40 |  |  |  | 44 |  |  | 37 |  |  |  |
| COc1cc(/C=C/C(=O)/C=C/c2ccco2)ccc1OCc1cn(CCN2C(=O)C(=O)c3cc(Br)ccc32)nn1 | 33 | 37 |  |  |  | 39 |  |  | 31 |  |  |  |
| COc1cc(/C=C/C(=O)/C=C/c2ccco2)ccc1OCc1cn(CCN2C(=O)C(=O)c3ccccc32)nn1 | 68 | 72 | 8.4 | 7.53 | 6.56 | 78 | 4.61 | 12 | 65 | 10 |  |  |
| COc1cccc(/C=C/C(=O)/C=C/c2ccc(OCc3cn(CCN4C(=O)C(=O)c5cc(Br)ccc54)nn3)c(OC)c2)c1 | 56 | 54 |  |  |  | 57 |  |  | 51 |  |  |  |
| COc1cc(/C=C/C(=O)/C=C/c2ccc(Br)cc2)ccc1OCc1cn(CCN2C(=O)C(=O)c3ccccc32)nn1 | 47 | 48 |  |  |  | 49 |  |  | 44 |  |  |  |
| COc1cc(/C=C/C(=O)/C=C/c2ccccc2)ccc1OCc1cn(CCN2C(=O)C(=O)c3cc(Cl)ccc32)nn1 | 63 | 65 |  |  |  | 68 |  | 13 | 58 | 13 | 14 | 21 |
| COc1cc(/C=C/C(=O)/C=C/c2ccc(Cl)cc2)ccc1OCc1cn(CCN2C(=O)C(=O)c3cc(Br)ccc32)nn1 | 24 | 25 |  |  |  | 29 |  |  | 23 |  |  |  |
| COc1ccc(/C=C/C(=O)/C=C/c2ccc(OCc3cn(CCN4C(=O)C(=O)c5cc(Cl)ccc54)nn3)c(OC)c2)cc1 | 63 | 64 | 12.5 | 11 | 9.78 | 66 | 7.81 |  | 60 | 10 | 12 | 15 |
| COc1cc(/C=C/C(=O)/C=C/c2ccccc2)ccc1OCc1cn(CCN2C(=O)C(=O)c3cc(Br)ccc32)nn1 | 51 | 54 |  |  |  | 56 |  | 12 | 50 | 16 | 14 | 11 |
| COc1cc(/C=C/C(=O)/C=C/c2cccs2)ccc1OCc1cn(CCN2C(=O)C(=O)c3cc(Br)ccc32)nn1 | 30 | 31 |  |  |  | 34 |  |  | 28 |  |  |  |
| COc1cc(/C=C/C(=O)/C=C/c2ccc([N+](=O)[O-])cc2)ccc1OCc1cn(CCN2C(=O)C(=O)c3ccccc32)nn1 | 35 | 35 |  |  |  | 39 |  |  | 33 |  |  |  |
| COc1cc(/C=C/C(=O)/C=C/c2ccc(Br)cc2)ccc1OCc1cn(CCN2C(=O)C(=O)c3cc(Br)ccc32)nn1 | 19 | 21 |  |  |  | 20 |  |  | 17 |  |  |  |
| COc1cccc(/C=C/C(=O)/C=C/c2ccc(OCc3cn(CCN4C(=O)C(=O)c5cc(Cl)ccc54)nn3)c(OC)c2)c1 | 52 | 55 |  |  |  | 58 |  |  | 51 |  | 10 | 13 |
| COc1cc(/C=C/C(=O)/C=C/c2cccc(Br)c2)ccc1OCc1cn(CCN2C(=O)C(=O)c3cc(Cl)ccc32)nn1 | 10 | 12 |  |  |  | 19 |  |  | 14 |  |  |  |
| COc1cc(/C=C/C(=O)/C=C/c2cccc(Br)c2)ccc1OCc1cn(CCN2C(=O)C(=O)c3ccccc32)nn1 | 36 | 40 |  |  |  | 42 |  |  | 35 |  |  |  |
| COc1cc(/C=C/C(=O)/C=C/c2ccc(Br)cc2)ccc1OCc1cn(CCN2C(=O)C(=O)c3cc(Cl)ccc32)nn1 | 20 | 25 |  |  |  | 24 |  |  | 23 |  |  |  |
| COc1ccc(/C=C/C(=O)/C=C/c2ccc(OCc3cn(CCN4C(=O)C(=O)c5cc(Br)ccc54)nn3)c(OC)c2)cc1OC | 63 | 65 |  |  |  | 69 |  | 10 | 61 | 12 | 12 | 10 |
| COc1cc(/C=C/C(=O)/C=C/c2ccc([N+](=O)[O-])cc2)ccc1OCc1cn(CCN2C(=O)C(=O)c3cc(Cl)ccc32)nn1 |  |  |  |  |  | 11 |  |  | 10 |  |  |  |
| COc1ccccc1/C=C/C(=O)/C=C/c1ccc(OCc2cn(CCN3C(=O)C(=O)c4cc(Cl)ccc43)nn2)c(OC)c1 | 47 | 43 |  |  |  | 50 |  |  | 42 |  |  | 11 |
| COc1cc(/C=C/C(=O)/C=C/c2cccc(Br)c2)ccc1OCc1cn(CCN2C(=O)C(=O)c3cc(Br)ccc32)nn1 | 11 | 12 |  |  |  | 13 |  |  | 13 |  |  |  |
| COc1cc(/C=C/C(=O)/C=C/c2ccc([N+](=O)[O-])cc2)ccc1OCc1cn(CCN2C(=O)C(=O)c3cc(Br)ccc32)nn1 | 10 |  |  |  |  | 10 |  |  | 10 |  |  |  |
| COc1cc(/C=C/C(=O)/C=C/c2ccc(Cl)cc2)ccc1OCc1cn(CCN2C(=O)C(=O)c3cc(Cl)ccc32)nn1 | 29 | 30 |  |  |  | 36 |  |  | 25 |  |  |  |
| COc1ccccc1/C=C/C(=O)/C=C/c1ccc(OCc2cn(CCN3C(=O)C(=O)c4cc(Br)ccc43)nn2)c(OC)c1 | 47 | 43 |  |  |  | 50 |  |  | 42 |  |  |  |
| COc1cc(/C=C/C(=O)/C=C/c2ccco2)ccc1OCc1cn(CCN2C(=O)C(=O)c3cc(Cl)ccc32)nn1 | 39 | 41 |  |  |  | 47 |  |  | 40 |  |  |  |
| COc1cc(/C=C/C(=O)/C=C/c2cccc([N+](=O)[O-])c2)ccc1OCc1cn(CCN2C(=O)C(=O)c3ccccc32)nn1 | 22 | 24 |  |  |  | 25 |  |  | 20 |  |  |  |
| COc1cc(/C=C/C(=O)/C=C/c2ccc(Cl)cc2)ccc1OCc1cn(CCN2C(=O)C(=O)c3ccccc32)nn1 | 50 | 49 |  |  |  | 51 |  |  | 45 |  |  |  |
| COc1ccc(/C=C/C(=O)/C=C/c2ccc(OCc3cn(CCN4C(=O)C(=O)c5cc(Br)ccc54)nn3)c(OC)c2)cc1 | 59 | 60 |  |  |  | 65 |  |  | 57 | 10 | 10 |  |
| COc1cc(/C=C/C(=O)/C=C/c2cccc3ccccc23)ccc1OCc1cn(CCN2C(=O)C(=O)c3cc(Cl)ccc32)nn1 | 74 | 76 | 14.1 | 13.6 | 11.1 | 78 | 9.34 |  | 71 |  |  |  |
